The target in the test is T1, delF508-CFTR-HRP (Homo sapiens, UniProt P13569, DEL508-508).
T1 construct: expressed in transfected cells
The test can be described thus: Measurement of delF508-CFTR-HRP surface expression in CFBE41o- cells (HRP luminescence).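 On DelF508-CFTR-HRP Amax %: percent efficacy relative to a reference CFTR corrector compound.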 It counts as cell-based. Particulars: for Emax: CFBE41o-, read-out: DelF508-CFTR-HRP Amax %; for EC50: mean of at least two replicates. From the text:
Measurement of delF508-CFTR-HRP Surface Expression in CFBE41o-Cells
This assay quantifies the cell surface expressions of the mutant CFTR channel using an extracellular HRP tag.
A cellular assay was developed to measure surface expression of horseradish peroxidase (HRP) tagged delF508-CFTR in the human bronchial epithelial immortalized CFBE41o-cell line (Phuan, P. W., et al, (2014) Molecular Pharmacology 86:42-51). Specifically, the HRP sequence was inserted into the fourth extracellular loop of delF508-CFTR and stably expressed in CFBE41o-cells. Cells were seeded in 384 well plate at a density of 5000 cells/well and incubated at 37° C. for 12 to 24 hours in medium (Gibco MEM #11095, 10% FBS, 10 mM HEPES, […], 200 μg/mL G418, 3 μg/mL Puromycin). The delF508-CFTR-HRP expression was induced with 500 ng/mL doxycycline (Sigma D-9891, dissolved in H2O and sterile filtered) in medium and the cells were incubated at 37° C. for 48 h. Old medium was removed and fresh medium was added containing 500 ng/mL doxycycline and unknown test compound at required test concentration in DMSO, not exceeding 0.5% final DMSO concentration. The highest concentration tested was 10 μM with a 10-point concentration response curve using a 3-fold dilution. After addition of compounds, the cells were incubated for 24 h at 37° C. On the final day, cells were washed four times in PBS containing 1 mM MgCl2 and 0.1 mM CaCl2. HRP-Substrate (SuperSignal ELISA Pico, Fisher #37069) 20 μl/well was added and the luminescence signal was determined (Viewlux, Perkin Elmer). Light was emitted upon addition of exogenous HRP-Substrate only when delF508-CFTR-HRP reached the cell surface and the HRP tag was accessible to the HRP-Substrate (note: HRP-Substrate cannot cross the lipid bilayer to reach delF508-CFTR-HRP misfolded within the cell).
The median activity for the lowest concentration of the compounds on each assay plate was calculated and this value was used to normalize the signal for each well on the respective plate. Three replicates at each concentrations for every compound were run to determine one EC50. The median value was determined and used to calculate compound activities as described below. Effective half maximal values (EC50) were calculated for each compound by performing logistic regression on measured dose-response data points using the equation: […]
where “Y” is the observed activity, “Bottom” is the lowest observed value, “Top” is the highest observed value, and the “Hill coefficient” gives the largest absolute value of the slope. The curve fitting is carried out by a curve fitting program implemented at GNF using Matlab (Mathworks). The dose response curves also were used to calculate Fold Change (FC) using the equation: […]
Compound efficacy relative to the reference compound 3-(6-(1-(2,2-difluorobenzo[d][1,3]dioxol-5-yl)cyclopropane-1-carboxamido)-3-methylpyridin-2-yl)benzoic acid was determined using the following formula: […]

T1 sequence (P13569 with tags, fused parts or gaps DEL508-508): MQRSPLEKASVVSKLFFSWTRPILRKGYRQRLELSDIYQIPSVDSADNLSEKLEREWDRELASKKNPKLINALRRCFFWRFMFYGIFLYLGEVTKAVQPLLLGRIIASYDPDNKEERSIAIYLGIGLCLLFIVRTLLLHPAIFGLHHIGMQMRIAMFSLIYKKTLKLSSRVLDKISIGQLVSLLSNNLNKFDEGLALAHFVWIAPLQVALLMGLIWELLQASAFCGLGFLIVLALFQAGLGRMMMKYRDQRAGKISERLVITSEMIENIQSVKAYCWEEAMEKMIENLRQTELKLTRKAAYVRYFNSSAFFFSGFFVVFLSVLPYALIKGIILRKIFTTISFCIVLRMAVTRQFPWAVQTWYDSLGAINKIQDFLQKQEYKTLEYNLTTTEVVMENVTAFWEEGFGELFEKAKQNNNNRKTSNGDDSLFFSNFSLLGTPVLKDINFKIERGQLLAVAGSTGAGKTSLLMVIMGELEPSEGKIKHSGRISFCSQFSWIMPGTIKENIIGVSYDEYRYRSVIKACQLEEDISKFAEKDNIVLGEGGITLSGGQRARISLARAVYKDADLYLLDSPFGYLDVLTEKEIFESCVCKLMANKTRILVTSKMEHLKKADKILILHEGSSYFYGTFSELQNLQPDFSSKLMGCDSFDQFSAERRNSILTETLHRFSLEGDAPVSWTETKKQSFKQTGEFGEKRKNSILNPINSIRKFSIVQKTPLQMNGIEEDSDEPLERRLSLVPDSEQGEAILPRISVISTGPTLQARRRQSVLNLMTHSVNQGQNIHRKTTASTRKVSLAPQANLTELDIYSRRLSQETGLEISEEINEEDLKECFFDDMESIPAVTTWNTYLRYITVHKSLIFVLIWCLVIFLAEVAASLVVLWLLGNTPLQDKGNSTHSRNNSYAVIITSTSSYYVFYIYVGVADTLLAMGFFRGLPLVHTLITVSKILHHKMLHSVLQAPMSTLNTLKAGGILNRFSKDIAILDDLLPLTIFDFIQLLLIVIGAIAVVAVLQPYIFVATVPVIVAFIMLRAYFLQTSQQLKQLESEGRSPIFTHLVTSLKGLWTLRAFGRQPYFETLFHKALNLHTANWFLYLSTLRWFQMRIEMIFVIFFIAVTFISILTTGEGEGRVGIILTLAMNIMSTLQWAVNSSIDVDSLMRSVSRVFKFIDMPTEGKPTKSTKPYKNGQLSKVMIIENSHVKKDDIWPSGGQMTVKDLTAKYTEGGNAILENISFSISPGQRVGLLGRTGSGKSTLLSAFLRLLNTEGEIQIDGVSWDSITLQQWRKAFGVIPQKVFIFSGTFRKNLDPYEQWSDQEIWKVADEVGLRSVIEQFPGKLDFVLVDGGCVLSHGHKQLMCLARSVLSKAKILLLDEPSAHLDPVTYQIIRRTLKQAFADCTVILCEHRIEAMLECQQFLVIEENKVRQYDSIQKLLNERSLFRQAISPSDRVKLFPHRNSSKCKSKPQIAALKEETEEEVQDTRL

On to `O=C(NS(=O)(=O)c1cccc(N2CC[C@H](O)C2)n1)C1(Oc2cc(Cl)ccc2-c2ccc3ccoc3c2)CC1` [Example 5-4, (S)-1-(2-(Benzofuran-6-yl)-5-chlorophenoxy)-N-((6-(3-hydroxypyrrolidin-1-yl)pyridin-2-yl)sulfonyl)cyclopropane-1-carboxamide], for which the Emax stood at 376% and it took 2060 nM to reach a half-maximal effect (EC50).

Take `O=C(NS(=O)(=O)c1cccc(N2CC[C@H](O)C2)n1)C1(Oc2cc(Cl)ccc2OC2CCCC2)CC1` [Example 6-14, (S)-1-(5-chloro-2-(cyclopentyloxy)phenoxy)-N-((6-(3-hydroxypyrrolidin-1-yl)pyridin-2-yl)sulfonyl)cyclopropanecarboxamide]: the Emax is 276% and the response was half-maximal at 3240 nM (EC50).

Regarding `CC1(C)CCN(c2ccc(Cl)cc2OC2(C(=O)NS(=O)(=O)c3cccc(N4CCC(O)(C(F)(F)F)CC4)n3)CC2)CC1` [Example 10-9, 1-(5-chloro-2-(4,4-dimethylpiperidin-1-yl)phenoxy)-N-((6-(4-hydroxy-4-(trifluoromethyl)piperidin-1-yl)pyridin-2-yl)sulfonyl)cyclopropanecarboxamide], the Emax was 268% and a half-maximal response (EC50) required 460 nM.

`CC1CC(C)CN(c2ccc(Cl)cc2OC2(C(=O)NS(=O)(=O)c3cccc(N4CC[C@H](O)C4)n3)CC2)C1` (stereo partly drawn) [Example 9-17, 1-(5-Chloro-2-(3,5-dimethylpiperidin-1-yl)phenoxy)-N-((6-((S)-3-hydroxypyrrolidin-1-yl)pyridin-2-yl)sulfonyl)cyclopropanecarboxamide]: the Emax came to 176% and the EC50 – broadly, the midpoint of the concentration-response curve – worked out at 1290 nM.

With `CC(C)(C)C1(O)CCN(c2cccc(S(=O)(=O)NC(=O)C3(Oc4cc(Cl)ccc4C4CC5(CCC5)C4)CC3)n2)CC1` [Example 7-4, N-((6-(4-(tert-butyl)-4-hydroxypiperidin-1-yl)pyridin-2-yl)sulfonyl)-1-(5-chloro-2-(spiro[3.3]heptan-2-yl)phenoxy)cyclopropanecarboxamide], the Emax came to 840% and the EC50 is 440 nM.

On to `Cc1ccc(N2CCC(C)(C)CC2)c(OC2(C(=O)NS(=O)(=O)c3cccc(N)n3)CC2)c1` [Example 9-44, N-((6-Aminopyridin-2-yl)sulfonyl)-1-(2-(4,4-dimethylpiperidin-1-yl)-5-methylphenoxy)cyclopropane-1-carboxamide], for which the Emax is 234% and the EC50 is 1550 nM.

For `Cc1ccc(C2CCC(C)(C)OC2)c(OC2(C(=O)NS(=O)(=O)c3cccc(N4CCC(O)(C(F)(F)F)CC4)n3)CC2)c1` (single isomer, unassigned) [Example 11-2-1, 1-(2-(6,6-Dimethyltetrahydro-2H-pyran-3-yl)-5-methylphenoxy)-N-((6-(4-hydroxy-4-(trifluoromethyl)piperidin-1-yl)pyridin-2-yl)sulfonyl)cyclopropane-1-carboxamide], the “DelF508-CFTR-HRP Amax %” value was determined as 473.8% and the EC50 was 1860 nM.

As to `Cc1ccc(C2CCC(C)(C)OC2)c(OC2(C(=O)NS(=O)(=O)c3cccc(N4CC[C@H](O)C4)n3)CC2)c1` (single isomer, unassigned) [Example 4-24-2], the “DelF508-CFTR-HRP Amax %” value is recorded as 249% and the EC50 was determined as 3000 nM.

For `O=C(NS(=O)(=O)c1cccc(N2CCC(O)(C(F)(F)F)CC2)n1)C1(Oc2cc(Cl)ccc2N2CCC3(CC2)CC3)CC1` [Example 9-31, 1-(5-Chloro-2-(6-azaspiro[2.5]octan-6-yl)phenoxy)-N-((6-(4-hydroxy-4-(trifluoromethyl)piperidin-1-yl)pyridin-2-yl)sulfonyl)cyclopropanecarboxamide], the Emax stood at 553% and the response was half-maximal at 410 nM (EC50).

As to `O=C(NS(=O)(=O)c1cccc(N2CC[C@H](O)C2)n1)C1(Oc2cc(Cl)ccc2N2CCC(O)(c3ccccn3)CC2)CC1` [Example 9-37, (S)-1-(5-Chloro-2-(4-hydroxy-4-(pyridin-2-yl)piperidin-1-yl)phenoxy)-N-((6-(3-hydroxypyrrolidin-1-yl)pyridin-2-yl)sulfonyl)cyclopropanecarboxamide], the Emax is 12.6% and it took 80 nM to reach a half-maximal effect (EC50).

With `Cc1ccc(C2CCC(C)(C)OC2)c(OC2(C(=O)NS(=O)(=O)c3cccc(N4CC[C@H](O)C4)n3)CC2)c1` (single isomer, unassigned) [Example 4-24-1], the “DelF508-CFTR-HRP Amax %” value is listed as 295% and a half-maximal effect (EC50) was put at 3620 nM.

For the compound `O=C(NS(=O)(=O)c1cccc(N2CCC(O)(C(F)(F)F)CC2)n1)C1(Oc2cc(Cl)ccc2N2CC3(CCCCC3)C2)CC1` [Example 9-2, 1-(5-chloro-2-(2-azaspiro[3.5]nonan-2-yl)phenoxy)-N-((6-(4-hydroxy-4-(trifluoromethyl)piperidin-1-yl)pyridin-2-yl)sulfonyl)cyclopropanecarboxamide], the Emax was determined as 366% and the EC50 was 600 nM.

Turning to `CC1(C)CCN(c2ccc(Cl)cc2OC2(C(=O)NS(=O)(=O)c3cccc(N4CCCC(C)(O)C4)n3)CC2)CC1` (single isomer, unassigned) [Example 9-43-2, 1-(5-Chloro-2-(4,4-dimethylpiperidin-1-yl)phenoxy)-N-((6-(3-hydroxy-3-methylpiperidin-1-yl)pyridin-2-yl)sulfonyl)cyclopropane-1-carboxamide], the “DelF508-CFTR-HRP Amax %” value worked out at 367.4% and a half-maximal effect (EC50) was put at 1920 nM.

For `O=C(NS(=O)(=O)c1cccc(N2CC[C@H](O)C2)n1)C1(Oc2cc(Cl)ccc2N2CCCC3(CCCC3)C2)CC1` [Example 9-15, (S)-1-(5-Chloro-2-(7-azaspiro[4.5]decan-7-yl)phenoxy)-N-((6-(3-hydroxypyrrolidin-1-yl)pyridin-2-yl)sulfonyl)cyclopropanecarboxamide], the Emax is 477% and the EC50 was 290 nM.

`C[C@@]1(O)CCN(c2cccc(S(=O)(=O)NC(=O)C3(Oc4cc(Cl)ccc4C4CC5(CCC5)C4)CC3)n2)C1` (single isomer, unassigned) [Example 7-2-2]: the Emax worked out at 382% and it took 880 nM to reach a half-maximal effect (EC50).

For the compound `CC1(C)CN(c2ccc(Cl)cc2OC2(C(=O)NS(=O)(=O)c3cccc(N4CC[C@H](O)C4)n3)CC2)CC2(CCCC2)O1` [Example 9-33, (S)-1-(5-Chloro-2-(7,7-dimethyl-6-oxa-9-azaspiro[4.5]decan-9-yl)phenoxy)-N-((6-(3-hydroxypyrrolidin-1-yl)pyridin-2-yl)sulfonyl)cyclopropanecarboxamide], the Emax came out at 265% and the response was half-maximal at 2270 nM (EC50).

On to `O=C(NS(=O)(=O)c1cccc(N2CC[C@H](O)C2)n1)C1(Oc2cc(Cl)ccc2N2CCC3(CC2)CC3)CC1` [Example 9-9, (S)-1-(5-Chloro-2-(6-azaspiro[2.5]octan-6-yl)phenoxy)-N-((6-(3-hydroxypyrrolidin-1-yl)pyridin-2-yl)sulfonyl)cyclopropanecarboxamide], for which the EC50 stood at 1650 nM.

For the compound `CC1(C)CCN(c2ccc(Cl)cc2OC2(C(=O)NS(=O)(=O)c3cccc(N4CCC(C)(O)C4)n3)CC2)CC1` (single isomer, unassigned) [Example 9-39-1, 1-(5-Chloro-2-(4,4-dimethylpiperidin-1-yl)phenoxy)-N-((6-(3-hydroxy-3-methylpyrrolidin-1-yl)pyridin-2-yl)sulfonyl)cyclopropane-1-carboxamide], the “DelF508-CFTR-HRP Amax %” value came out at 726.4% and the EC50 was 570 nM.

On to `Cc1ccc(OC2CCCC2)c(OC2(C(=O)NS(=O)(=O)c3cccc(N4CC[C@H](O)C4)n3)CC2)c1` [Example 6-13, (S)-1-(2-(cyclopentyloxy)-5-methylphenoxy)-N-((6-(3-hydroxypyrrolidin-1-yl)pyridin-2-yl)sulfonyl)cyclopropanecarboxamide], for which the Emax was 285% and the response was half-maximal at 2550 nM (EC50).

On to `COCCN(C)c1cccc(S(=O)(=O)NC(=O)C2(Oc3cc(Cl)ccc3N3CCC(C)(C)CC3)CC2)n1` [Example 10-5, 1-(5-chloro-2-(4,4-dimethylpiperidin-1-yl)phenoxy)-N-((6-((2-methoxyethyl)(methyl)amino)pyridin-2-yl)sulfonyl)cyclopropanecarboxamide], for which the Emax is 475% and it took 1020 nM to reach a half-maximal effect (EC50).

These data come from US20220033407A1, “N-(pyridin-2-ylsulfonyl)cyclopropanecarboxamide Derivatives and their Use in the Treatment of Disease” (NOVARTIS AG, priority 2018, published 2022).
